According to article PMC5234683 (Psychopharmacology, 2014):
Read-outs that look alike come from different tables or passages of the source.

Legend:
D1R [1] = target: T1, D1R (Homo sapiens, UniProt P21728); assay: Radioligand competition binding, [3H]-SCH23390, HEK293 membranes; conditions: competition with 0.5 nM [3H]-SCH23390; single site; n=3
D2R [2] = target: T2, D2R (Homo sapiens, UniProt P14416); assay: Radioligand competition binding, [3H]-methylspiperone, HEK293 membranes; conditions: competition with 0.5 nM [3H]-methylspiperone; n=3
D3R [3] = target: T3, D3R (Homo sapiens, UniProt P35462); assay: as above; conditions: competition with 0.5 nM [3H]-methylspiperone; n=3
D4R [4] = target: T4, D4R (Homo sapiens, UniProt P21917); assay: Radioligand competition binding, [3H]-methylspiperone, CHO membranes; conditions: competition with 0.5 nM [3H]-methylspiperone; n=3
D5R [5] = target: T5, D5R (Homo sapiens, UniProt P21918); assay: DiscoveRx HitHunter cAMP accumulation assay, HEK293 cells; type: cell-based; conditions: agonist mode
D2R [6] = target: T2, D2R; type: cell-based; conditions: agonist mode; 100 μM forskolin
D1R [7] = target: T1, D1R; assay: HTRF cAMP assay; type: cell-based; conditions: agonist mode; Supplemental Fig. 1
D1R [8] = target: T1, D1R; assay: DiscoveRx PathHunter β-arrestin-2 recruitment assay, CHO-K1 cells; type: cell-based; conditions: agonist mode; concentrations up to 100 μM
D2R [9] = target: T2, D2R; assay: as above; type: cell-based; conditions: agonist mode; concentrations up to 100 μM
D3R [10] = target: T3, D3R; assay: as above; type: cell-based; conditions: agonist mode; concentrations up to 100 μM
D4R [11] = target: T4, D4R; assay: as above; type: cell-based; conditions: agonist mode; concentrations up to 100 μM
D5R [12] = target: T5, D5R; assay: as above; type: cell-based; conditions: agonist mode; concentrations up to 100 μM
D1R–D2R heteromer = D1R–D2R heteromer (Homo sapiens, UniProt P14416+P21728); assay: D1R–D2R-mediated calcium mobilization assay, co-transfected HEK293T cells; type: cell-based
[13] = target: D1-like receptors in bovine striatal membranes (Bos taurus, UniProt Q95136); assay: Bovine striatal radioligand binding assay, [3H]-SCH23390; conditions: read-out: Ki, one-site fit, 0.5 nM [3H]-SCH23390
D1R [14] = target: T1, D1R; conditions: agonist mode; tested up to 0.1 mM
SERT = conditions: read-out: Ki (nM) SERT; PDSP database; ref PDSP http://pdsp.med.unc.edu/; cited from earlier work
5-HT1A = conditions: read-out: Ki (nM) 5-HT1A; PDSP database; ref PDSP http://pdsp.med.unc.edu/; cited from earlier work
5-HT1B = conditions: read-out: Ki (nM) 5-HT1B; PDSP database; ref PDSP http://pdsp.med.unc.edu/; cited from earlier work
5-HT1D = conditions: read-out: Ki (nM) 5-HT1D; PDSP database; ref PDSP http://pdsp.med.unc.edu/; cited from earlier work
5-HT1E = conditions: read-out: Ki (nM) 5-HT1E; PDSP database; ref PDSP http://pdsp.med.unc.edu/; cited from earlier work
5-HT2A = conditions: read-out: Ki (nM) 5-HT2A; PDSP database; ref PDSP http://pdsp.med.unc.edu/; cited from earlier work
5-HT2B = conditions: read-out: Ki (nM) 5-HT2B; PDSP database; ref PDSP http://pdsp.med.unc.edu/; cited from earlier work
5-HT2C = conditions: read-out: Ki (nM) 5-HT2C; PDSP database; ref PDSP http://pdsp.med.unc.edu/; cited from earlier work
5-HT3 = conditions: read-out: Ki (nM) 5-HT3; PDSP database; ref PDSP http://pdsp.med.unc.edu/; cited from earlier work
5-HT5 = conditions: read-out: Ki (nM) 5-HT5; PDSP database; ref PDSP http://pdsp.med.unc.edu/; cited from earlier work
5-HT6 = conditions: read-out: Ki (nM) 5-HT6; PDSP database; ref PDSP http://pdsp.med.unc.edu/; cited from earlier work
5-HT7 = conditions: read-out: Ki (nM) 5-HT7; PDSP database; ref PDSP http://pdsp.med.unc.edu/; cited from earlier work
Alpha1A = conditions: read-out: Ki (nM) Alpha1A; PDSP database; ref PDSP http://pdsp.med.unc.edu/; cited from earlier work
Alpha1B = conditions: read-out: Ki (nM) Alpha1B; PDSP database; ref PDSP http://pdsp.med.unc.edu/; cited from earlier work
Alpha2A = conditions: read-out: Ki (nM) Alpha2A; PDSP database; ref PDSP http://pdsp.med.unc.edu/; cited from earlier work
Alpha2B = conditions: read-out: Ki (nM) Alpha2B; PDSP database; ref PDSP http://pdsp.med.unc.edu/; cited from earlier work
Alpha2C = conditions: read-out: Ki (nM) Alpha2C; PDSP database; ref PDSP http://pdsp.med.unc.edu/; cited from earlier work
Beta1 = conditions: read-out: Ki (nM) Beta1; PDSP database; ref PDSP http://pdsp.med.unc.edu/; cited from earlier work
Beta2 = conditions: read-out: Ki (nM) Beta2; PDSP database; ref PDSP http://pdsp.med.unc.edu/; cited from earlier work
CB1 = conditions: read-out: Ki (nM) CB1; PDSP database; ref PDSP http://pdsp.med.unc.edu/; cited from earlier work
CB2 = conditions: read-out: Ki (nM) CB2; PDSP database; ref PDSP http://pdsp.med.unc.edu/; cited from earlier work
M2 = conditions: read-out: Ki (nM) M2; PDSP database; ref PDSP http://pdsp.med.unc.edu/; cited from earlier work
M5 = conditions: read-out: Ki (nM) M5; PDSP database; ref PDSP http://pdsp.med.unc.edu/; cited from earlier work
D1 = conditions: read-out: Ki (nM) D1; PDSP database; ref PDSP http://pdsp.med.unc.edu/; cited from earlier work
D2 = conditions: read-out: Ki (nM) D2; PDSP database; ref PDSP http://pdsp.med.unc.edu/; cited from earlier work
D3 = conditions: read-out: Ki (nM) D3; PDSP database; ref PDSP http://pdsp.med.unc.edu/; cited from earlier work
D4 = conditions: read-out: Ki (nM) D4; PDSP database; ref PDSP http://pdsp.med.unc.edu/; cited from earlier work
D5 = conditions: read-out: Ki (nM) D5; PDSP database; ref PDSP http://pdsp.med.unc.edu/; cited from earlier work
DAT = conditions: read-out: Ki (nM) DAT; PDSP database; ref PDSP http://pdsp.med.unc.edu/; cited from earlier work
GABA-A = conditions: read-out: Ki (nM) GABA-A; PDSP database; ref PDSP http://pdsp.med.unc.edu/; cited from earlier work
H1 = conditions: read-out: Ki (nM) H1; PDSP database; ref PDSP http://pdsp.med.unc.edu/; cited from earlier work
H2 = conditions: read-out: Ki (nM) H2; PDSP database; ref PDSP http://pdsp.med.unc.edu/; cited from earlier work
H3 = conditions: read-out: Ki (nM) H3; PDSP database; ref PDSP http://pdsp.med.unc.edu/; cited from earlier work
H4 = conditions: read-out: Ki (nM) H4; PDSP database; ref PDSP http://pdsp.med.unc.edu/; cited from earlier work
NET = conditions: read-out: Ki (nM) NET; PDSP database; ref PDSP http://pdsp.med.unc.edu/; cited from earlier work
DOR = conditions: read-out: Ki (nM) DOR; PDSP database; ref PDSP http://pdsp.med.unc.edu/; cited from earlier work
KOR = conditions: read-out: Ki (nM) KOR; PDSP database; ref PDSP http://pdsp.med.unc.edu/; cited from earlier work
MOR = conditions: read-out: Ki (nM) MOR; PDSP database; ref PDSP http://pdsp.med.unc.edu/; cited from earlier work
Sigma-1 = conditions: read-out: Ki (nM) Sigma-1; PDSP database; ref PDSP http://pdsp.med.unc.edu/; cited from earlier work
Sigma-2 = conditions: read-out: Ki (nM) Sigma-2; PDSP database; ref PDSP http://pdsp.med.unc.edu/; cited from earlier work
5-HT1A receptor = conditions: ref Gao et al. 2011; Guo et al. 2009; cited from earlier work
[15] = ref Sun et al. (2009); cited from earlier work

## COc1cc2c(cc1O)[C@@H]1Cc3ccc(O)c(OC)c3CN1CC2 [(−)-stepholidine, (−)-Stepholidine]
D1R [1]
  Ki: 0.0051 ± 0.0023 µM
D2R [2]
  Ki: 0.0116 ± 0.0042 µM
D3R [3]
  Ki: 0.0234 ± 0.0087 µM
D4R [4]
  Ki: 1.45 µM
D5R [5]
  agonist activity, cAMP accumulation: failed to produce any measurable cAMP accumulation
D2R [6]
  agonist activity, inhibition of forskolin-stimulated cAMP accumulation: has no effect on inhibiting cAMP accumulation
D1R [7]
  agonist activity, cAMP accumulation (HTRF): did not stimulate D1R-mediated cAMP accumulation
D1R [8]
  agonist activity, β-arrestin-2 recruitment: failed to produce any measurable recruitment of β-arrestin-2
D2R [9]
  agonist activity, β-arrestin-2 recruitment: failed to produce any measurable recruitment of β-arrestin-2
D3R [10]
  agonist activity, β-arrestin-2 recruitment: failed to produce any measurable recruitment of β-arrestin-2
D4R [11]
  agonist activity, β-arrestin-2 recruitment: failed to produce any measurable recruitment of β-arrestin-2
D5R [12]
  agonist activity, β-arrestin-2 recruitment: failed to produce any measurable recruitment of β-arrestin-2
D1R–D2R heteromer; agonist mode, concentrations up to 50 μM
  agonist activity, Ca2+ mobilization: no Ca^2+ mobilization was detected
D1R–D2R heteromer; read-out: IC50, inhibition of dopamine-stimulated calcium mobilization, EC80 (1 μM) dopamine, n=3
  IC50: 0.0193 ± 0.0037 µM
[13]; control, absence of GTPγS
  Ki: 0.016 ± 0.0024 µM
[13]; presence of 1 mM GTPγS
  Ki: 0.0192 ± 0.0044 µM
D1R [14]
  agonist activity, cAMP accumulation: has no effect on cAMP accumulation
SERT
  Ki: > 10000 nM
5-HT1A
  Ki: 143 nM
5-HT1B
  Ki: 6980 nM
5-HT1D
  Ki: > 10000 nM
5-HT1E
  Ki: > 10000 nM
5-HT2A
  Ki: > 10000 nM
5-HT2B
  Ki: 226 nM
5-HT2C
  Ki: > 10000 nM
5-HT3
  Ki: > 10000 nM
5-HT5
  Ki: > 10000 nM
5-HT6
  Ki: > 10000 nM
5-HT7
  Ki: > 10000 nM
Alpha1A
  Ki: > 10000 nM
Alpha1B
  Ki: > 10000 nM
Alpha2A
  Ki: > 10000 nM
Alpha2B
  Ki: 6880 nM
Alpha2C
  Ki: 214 nM
Beta1
  Ki: > 10000 nM
Beta2
  Ki: > 10000 nM
CB1
  Ki: > 10000 nM
CB2
  Ki: > 10000 nM
M2
  Ki: > 10000 nM
M5
  Ki: > 10000 nM
D1
  Ki: 5.9 nM
D2
  Ki: 974 nM
D3
  Ki: 30.1 nM
D4
  Ki: 3750 nM
D5
  Ki: 4.4 nM
DAT
  Ki: > 10000 nM
GABA-A
  Ki: > 10000 nM
H1
  Ki: > 10000 nM
H2
  Ki: > 10000 nM
H3
  Ki: > 10000 nM
H4
  Ki: > 10000 nM
NET
  Ki: > 10000 nM
DOR
  Ki: > 10000 nM
KOR
  Ki: > 10000 nM
MOR
  Ki: > 10000 nM
Sigma-1
  Ki: 1600 nM
Sigma-2
  Ki: 53.4 nM
5-HT1A receptor
  functional profile at the 5-HT1A receptor: partial agonist
[15]
  metabolism after administration: rapidly metabolized within minutes of administration
